Measured values reported in the NIST ThermoML archive (doi:10.1016/j.fluid.2018.05.028).

Experiment: xn = mol fraction of the nth substance listed
Conditions: 101 kPa, Liquid; for viscosity: Concentric cylinders viscometry; for speed of sound: Single path-length method; for mass density: Vibrating tube method

CCCCCCCCCCCCCCCC [hexadecane] + CCCCO
Conditions | mass density [kg/m3] | speed of sound [m/s] | viscosity [mPa·s]
293.15 K, x2 = 0 | 773.35 | 1357.4 | 3.408
293.15 K, x2 = 0.1 | 773.9 | 1349.6 | 3.204
293.15 K, x2 = 0.2 | 774.92 | 1343.3 | 3.109
293.15 K, x2 = 0.3 | 776.24 | 1336.8 | 2.998
293.15 K, x2 = 0.4 | 777.91 | 1329.7 | 2.935
293.15 K, x2 = 0.5 | 780.07 | 1322 | 2.9
293.15 K, x2 = 0.6 | 782.88 | 1313.4 | 2.854
293.15 K, x2 = 0.7 | 786.53 | 1303.1 | 2.874
293.15 K, x2 = 0.8 | 791.49 | 1290.7 | 2.875
293.15 K, x2 = 0.9 | 798.54 | 1275.4 | 2.856
298.15 K, x2 = 0 | 769.87 | 1338.5 | 3.035
298.15 K, x2 = 0.1 | 770.35 | 1330.6 | 2.852
298.15 K, x2 = 0.2 | 771.34 | 1324.4 | 2.77
298.15 K, x2 = 0.3 | 772.63 | 1317.9 | 2.675
298.15 K, x2 = 0.4 | 774.28 | 1310.8 | 2.616
298.15 K, x2 = 0.5 | 776.41 | 1303.2 | 2.578
298.15 K, x2 = 0.6 | 779.18 | 1294.7 | 2.535
298.15 K, x2 = 0.7 | 782.81 | 1284.7 | 2.543
298.15 K, x2 = 0.8 | 787.73 | 1272.7 | 2.541
298.15 K, x2 = 0.9 | 794.77 | 1257.8 | 2.52
303.15 K, x2 = 0 | 766.4 | 1319.8 | 2.708
303.15 K, x2 = 0.1 | 766.82 | 1311.8 | 2.544
303.15 K, x2 = 0.2 | 767.77 | 1305.6 | 2.471
303.15 K, x2 = 0.3 | 769.03 | 1299.1 | 2.387
303.15 K, x2 = 0.4 | 770.64 | 1292.1 | 2.332
303.15 K, x2 = 0.5 | 772.74 | 1284.6 | 2.294
303.15 K, x2 = 0.6 | 775.47 | 1276.2 | 2.249
303.15 K, x2 = 0.7 | 779.07 | 1266.4 | 2.246
303.15 K, x2 = 0.8 | 783.97 | 1254.7 | 2.244
303.15 K, x2 = 0.9 | 790.97 | 1240.2 | 2.219
308.15 K, x2 = 0 | 762.95 | 1301.3 | 2.432
308.15 K, x2 = 0.1 | 763.28 | 1293.2 | 2.283
308.15 K, x2 = 0.2 | 764.19 | 1287 | 2.217
308.15 K, x2 = 0.3 | 765.42 | 1280.5 | 2.144
308.15 K, x2 = 0.4 | 766.99 | 1273.5 | 2.092
308.15 K, x2 = 0.5 | 769.05 | 1266.1 | 2.053
308.15 K, x2 = 0.6 | 771.75 | 1257.8 | 2.012
308.15 K, x2 = 0.7 | 775.31 | 1248.2 | 2.001
308.15 K, x2 = 0.8 | 780.17 | 1236.8 | 1.992
308.15 K, x2 = 0.9 | 787.14 | 1222.8 | 1.967
313.15 K, x2 = 0 | 759.49 | 1283.1 | 2.199
313.15 K, x2 = 0.1 | 759.74 | 1274.9 | 2.064
313.15 K, x2 = 0.2 | 760.61 | 1268.5 | 2.004
313.15 K, x2 = 0.3 | 761.8 | 1262.1 | 1.939
313.15 K, x2 = 0.4 | 763.33 | 1255.1 | 1.89
313.15 K, x2 = 0.5 | 765.35 | 1247.7 | 1.851
313.15 K, x2 = 0.6 | 768.01 | 1239.6 | 1.811
313.15 K, x2 = 0.7 | 771.52 | 1230.1 | 1.794
313.15 K, x2 = 0.8 | 776.34 | 1219 | 1.781
313.15 K, x2 = 0.9 | 783.27 | 1205.5 | 1.755
318.15 K, x2 = 0 | 756.05 | 1265 | 1.996
318.15 K, x2 = 0.1 | 756.2 | 1256.7 | 1.871
318.15 K, x2 = 0.2 | 757.02 | 1250.3 | 1.815
318.15 K, x2 = 0.3 | 758.17 | 1243.8 | 1.756
318.15 K, x2 = 0.4 | 759.66 | 1236.9 | 1.709
318.15 K, x2 = 0.5 | 761.63 | 1229.5 | 1.67
318.15 K, x2 = 0.6 | 764.24 | 1221.4 | 1.631
318.15 K, x2 = 0.7 | 767.71 | 1212.1 | 1.613
318.15 K, x2 = 0.8 | 772.49 | 1201.3 | 1.593
318.15 K, x2 = 0.9 | 779.38 | 1188.2 | 1.564
323.15 K, x2 = 0 | 752.61 | 1247.1 | 1.823
323.15 K, x2 = 0.1 | 752.66 | 1238.6 | 1.707
323.15 K, x2 = 0.2 | 753.42 | 1232.1 | 1.654
323.15 K, x2 = 0.3 | 754.53 | 1225.7 | 1.6
323.15 K, x2 = 0.4 | 755.97 | 1218.8 | 1.556
323.15 K, x2 = 0.5 | 757.89 | 1211.4 | 1.517
323.15 K, x2 = 0.6 | 760.45 | 1203.4 | 1.479
323.15 K, x2 = 0.7 | 763.86 | 1194.2 | 1.452
323.15 K, x2 = 0.8 | 768.59 | 1183.6 | 1.435
323.15 K, x2 = 0.9 | 775.44 | 1171 | 1.404
328.15 K, x2 = 0 | 749.18 | 1229.3 | 1.671
328.15 K, x2 = 0.1 | 749.13 | 1220.8 | 1.563
328.15 K, x2 = 0.2 | 749.82 | 1214.2 | 1.514
328.15 K, x2 = 0.3 | 750.87 | 1207.7 | 1.464
328.15 K, x2 = 0.4 | 752.26 | 1200.8 | 1.422
328.15 K, x2 = 0.5 | 754.13 | 1193.4 | 1.383
328.15 K, x2 = 0.6 | 756.63 | 1185.4 | 1.346
328.15 K, x2 = 0.7 | 759.99 | 1176.4 | 1.317
328.15 K, x2 = 0.8 | 764.66 | 1166 | 1.297
328.15 K, x2 = 0.9 | 771.46 | 1153.8 | 1.264
333.15 K, x2 = 0 | 745.74 | 1211.8 | 1.537
333.15 K, x2 = 0.1 | 745.58 | 1203.1 | 1.437
333.15 K, x2 = 0.2 | 746.2 | 1196.3 | 1.389
333.15 K, x2 = 0.3 | 747.19 | 1189.8 | 1.343
333.15 K, x2 = 0.4 | 748.53 | 1182.9 | 1.303
333.15 K, x2 = 0.5 | 750.34 | 1175.6 | 1.266
333.15 K, x2 = 0.6 | 752.78 | 1167.6 | 1.23
333.15 K, x2 = 0.7 | 756.08 | 1158.7 | 1.199
333.15 K, x2 = 0.8 | 760.69 | 1148.5 | 1.177
333.15 K, x2 = 0.9 | 767.42 | 1136.6 | 1.143
338.15 K, x2 = 0 | 742.31 | 1194.4 | 1.421
338.15 K, x2 = 0.1 | 742.04 | 1185.5 | 1.328
338.15 K, x2 = 0.2 | 742.57 | 1178.7 | 1.282
338.15 K, x2 = 0.3 | 743.51 | 1172.1 | 1.238
338.15 K, x2 = 0.4 | 744.78 | 1165.2 | 1.2
338.15 K, x2 = 0.5 | 746.53 | 1157.9 | 1.163
338.15 K, x2 = 0.6 | 748.9 | 1149.9 | 1.127
338.15 K, x2 = 0.7 | 752.13 | 1141 | 1.095
338.15 K, x2 = 0.8 | 756.66 | 1131 | 1.071
338.15 K, x2 = 0.9 | 763.33 | 1119.5 | 1.036
343.15 K, x2 = 0 | 738.88 | 1177.5 | 1.316
343.15 K, x2 = 0.1 | 738.5 | 1168.3 | 1.23
343.15 K, x2 = 0.2 | 738.94 | 1161.2 | 1.185
343.15 K, x2 = 0.3 | 739.8 | 1154.6 | 1.144
343.15 K, x2 = 0.4 | 741.01 | 1147.7 | 1.107
343.15 K, x2 = 0.5 | 742.68 | 1140.3 | 1.071
343.15 K, x2 = 0.6 | 744.98 | 1132.3 | 1.037
343.15 K, x2 = 0.7 | 748.13 | 1123.5 | 1.004
343.15 K, x2 = 0.8 | 752.59 | 1113.6 | 0.9782
343.15 K, x2 = 0.9 | 759.19 | 1102.4 | 0.9425
